Results as given in patent US20250186391A1, “ORAL COMPLEMENT FACTOR D INHIBITORS” (BioCryst Pharmaceuticals, Inc., priority 2019, published 2025).

Molecular target: Factor D (Homo sapiens (Human), UniProt P00746)
Assay: Factor D esterolytic assay
Type: biochemical
Settings: Z-Lys-SBzl substrate, 100 mM HEPES, 500 mM NaCl, pH 7.5, 10% DMSO; tested a minimum of three times; read-out: Measured Ki (IC50) Value for Compounds: IC50
Outline: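 Chromogenic thioesterase read-out: Z-Lys-SBzl (1.29 mM) hydrolysis by human Factor D, thiol detected with DTNB at 405 nm (690 nm background subtracted) for 600 s. Run in 100 mM HEPES, 500 mM NaCl, pH 7.5, 10% DMSO, substrate added immediately or after room-temperature preincubation. IC50 from percent inhibition versus enzyme alone, n≥3.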

Sequence of Factor D (P00746 26-253): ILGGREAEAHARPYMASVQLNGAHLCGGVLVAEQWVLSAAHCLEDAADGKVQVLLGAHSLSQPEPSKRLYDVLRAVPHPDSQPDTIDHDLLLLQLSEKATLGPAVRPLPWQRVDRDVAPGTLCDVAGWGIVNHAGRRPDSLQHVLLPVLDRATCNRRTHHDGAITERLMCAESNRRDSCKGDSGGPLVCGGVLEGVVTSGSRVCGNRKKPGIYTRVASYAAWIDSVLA

IC50 [nM] | SMILES
< 1000 | NCc1cccc(-c2cc(OCc3ccncc3)c3occ(COc4ccccc4CC(=O)O)c3c2)c1 [Compound 166f, 2-(2-((5-(3-(aminomethyl)phenyl)-7-(pyridin-4-ylmethoxy)benzofuran-3-yl)methoxy)phenyl)acetic acid]
< 1000 | NCc1cccc(-c2cc(COc3ccccc3)c3occ(COc4ccccc4CC(=O)O)c3c2)c1 [Compound 92e, 2-(2-((5-(3-(aminomethyl)phenyl)-7-(phenoxymethyl)benzofuran-3-yl)methoxy)phenyl)acetic acid]
< 1000 | Cc1ccc(CC(=O)O)c(OCc2coc3ccc(-c4cccc(CN)c4)cc23)c1 [Compound 47d, 2-(2-((5-(3-(aminomethyl)phenyl)benzofuran-3-yl)methoxy)-4-methylphenyl)acetic acid]
< 1000 | NCc1cccc(-c2cc(NCC3CCCO3)c3occ(COc4ccccc4CC(=O)O)c3c2)c1 (stereo not shown) [Compound 149d, 2-(2-((5-(3-(aminomethyl)phenyl)-7-(((tetrahydrofuran-2-yl)methyl)amino)benzofuran-3-yl)methoxy)phenyl)acetic acid]
1000 to 10000 | Cc1cc2occ(COc3ccccc3CC(=O)O)c2cc1-c1cccc(CN)c1 [Compound 70f, 2-(2-((5-(3-(aminomethyl)phenyl)-6-methylbenzofuran-3-yl)methoxy)phenyl)acetic acid]
< 1000 | NCc1cccc(-c2coc3ccc(COc4ccccc4CC(=O)O)cc23)c1 [Compound 38e, 2-(2-((3-(3-(aminomethyl)phenyl)benzofuran-5-yl)methoxy)phenyl)acetic acid]

SMILES | IC50 [nM]
CC(C)(C)OC(=O)n1cc(COc2ccccc2CC(=O)O)c2cc(-c3cccc(CN)c3)ccc21 [Compound 75d, 2-(2-((5-(3-(aminomethyl)phenyl)-1-(tert-butoxycarbonyl)-1H-indol-3-yl)methoxy)phenyl)acetic acid] | < 1000
